Measurements reported in US11406103B2, “Sanitizing rinse based on quat-anionic surfactant synergy” (Ecolab USA Inc., priority 2016, dated 2022).
“Also recorded” adds a separate entry of the source. Like-named read-outs stand apart in the source and are kept apart here.

Assays:
Glewwe foam test = format: physicochemical
Protocol: A test was run to determine the foam profiles of the five quat solutions of Example 1. A Glewwe foam apparatus in combination with the following procedure was used for this test. First, each quat was prepared and gently poured into a Glewwe cylinder. Samples tested contained a concentration of 50 ppm of the indicated antimicrobial quats. A ruler was attached to the side of the cylinder, and the solution was level with the bottom of the ruler. The pump was turned on. Foam height was estimated by reading the average level of foaming according to the ruler. Foam height readings were taken versus time with a stopwatch or timer. The pump was turned off and height of the foam was recorded at various times. […] The foam level was read after 15 seconds of agitation and again after 60 seconds of agitation for a given amount of time. A stable foam is defined when the foam remains for several minutes after agitation is stopped. A partially stable foam breaks slowly within a minute. An unstable foam breaks rapidly in less than 15 seconds. A desirable rinse should have unstable foam to no foam. In contrast, antimicrobial hand soap should have stable foam.
The results from the foaming test are shown in FIG. 2, and described in Table 3 below.
Another foam evaluation test was run using the procedure described in Example 2.
The inclusion of additional additives (defoamer and solubilizer/booster, such as Emulsogen) to the Quat-Anionic surfactant pairs were also analyzed, provided in Table 5 below (5A-5B), using the procedure described in Example 2.

[1] = Dynamic surface tension (SITA science line t60, bubble pressure); format: physicochemical
Protocol: The SITA science line t60 measures the dynamic surface tension of liquids up to the semi-static range. Air bubbles are generated from a capillary with known radius. The bubble pressure is measured as a function of bubble life time, which can be correlated to the surface tension according to the Young-Laplace equation. […] The dynamic surface tension behavior of surfactants is particularly important in applications where a quick response of surfactant is required, for example, in short rinse cycles of automated dishwashing.
The SITA science line t60 was calibrated with DI water. […] Following calibration, the SITA was programmed to take readings at the desired time intervals (i.e., 0.3, 1.6, 3.0, 9.1 seconds).
10-15 mL were transferred into 20 mL vials and immersed in a water bath to 25° C.±2° C. The samples were equilibrated for 10-15 minutes. The samples were individually tested. After each sample was tested the SITA's cleaning procedure was run, then the surface tension of DI water was checked to ensure the SITA was adequately clean. If the DI water measurements were not within 72.0±1.0 mN/m, then the cleaning procedure was run again. […]

[2] = tested on: Escherichia coli ATCC 11229; test: Low temperature warewash sanitizing rinse test; format: cell-based; details: anionic surfactant paired with quaternary ammonium compound, in this study
Protocol: The sanitizing efficiency was determined for the experimental formulas of Table 8A-8B using the following procedure: • 1.) Set up low temperature ware wash machine to our specific settings (see 7-cycle procedure) • a. Set water Temperature (120° F.) • b. Check water Hardness (4-6 gpg) • c. Set water flow rate • d. Hand dose in chemistry, no need to set up (50 ppm Quat, 50 ppm Bleach) • e. Watch these variables throughout tests • 2.) Have 10 processed Libby glasses for each tested chemistry run • a. 5 will be unwashed controls • b. 5 will be washed to detect kill • 3.) Have enough sterile tubs to hold glasses—supplied by Micro • a. Max 20 glasses per tub, or 2 runs • 4.) Have enough swabs to collect specimen—supplied by Micro • a. Need 2 per run or 1 swab per 5 glasses • 5.) Have 1 buffer solution tube per 5 glasses, 2 per run • 6.) Have Micro bring in an E. coli suspension • 7.) Get 10 glasses ready in easy reach • 8.) Fill one glass, an inch from the top, with E. coli suspension • a. Start timer for 10 minutes at this point • 9.) Pour E. coli Suspension from first glass into second glass, from second glass into third, and so on • 10.) Dip the top inch of each soiled glass into E. coli suspension to coat rim • 11.) Set glasses upside down in a sterile tub and let dry for 10 minutes • 12.) Swab 5 of the 10 glasses as your test control group • a. […]

| Molecule | Foaming Profile (Glewwe foam test) | Dynamic Surface Activity [1] | antimicrobial synergy with quat, in words [2] | other results |
| --- | --- | --- | --- | --- |
| Dioctyl (C8) dimethyl ammonium chloride [Bardac LF80] | 5 | 5 |  | foam profile, in words (Glewwe foam test): lowest foam profile; Dynamic surface tension [1]: 69 mN/m; dynamic surface tension / surface activity, in words [1]: least surface active; also recorded: very low surface activity; also recorded: very little surface activity |
| Alkyl Benzyl ammonium chloride [Uniquat QAC-50] |  |  |  | Foaming Profile (Glewwe foam test; ranking 1-5, Glewwe Foam Test, 50 ppm Quat, 6psi, 140° F.): 1; Dynamic Surface Activity ([1]; ranking 1-5 among five quats, 100 ppm quat, 75° F.): 3 |
| CCCCCCCC(=O)O [Octanoic acid] |  |  | best antimicrobial synergy |  |
| Didecyl (C10) dimethyl ammonium chloride [Bardac 2250] | 3 | 1 |  |  |
| CCCCCCCCCC(=O)O [Decanoic acid] |  |  | best antimicrobial synergy |  |
